Experimental data taken from US7482486B2, “Methods for the preparation and formulation of magnesium valproate hydrate” (BioLink Life Sciences, Inc., priority 2005, dated 2009).

Columns and labels:
[1] = background statement; cited from earlier work
[2] = cited from earlier work
[3] = Hygroscopicity / deliquescence of the solid; assay type: physicochemical; conditions: isolated solid
[4] = Stability of the solid during storage; assay type: physicochemical; conditions: ambient conditions where stated, hydrate
epileptic patients = test: Open, comparative clinical trial in epileptic patients versus sodium valproate; conditions: expected
From the text: The therapeutic benefit of magnesium valproate hydrate of the present invention is compared with that of sodium valproate in an open, comparative clinical trial in epileptic patients. […] Then treatment is substituted with magnesium valproate hydrate (alone or combined with other drugs) for 3 months.

deacetylase = conditions: dose between 20 and 40 mg/kg; patients with cervical cancer; cited from earlier work
[5] = in comparison with sodium valproate or valproic acid; cited from earlier work
[6] = after 3 months of magnesium valproate hydrate, substituted for sodium valproate

## CCCC(CCC)C(=O)[O-].[Na+] [Sodium valproate]
[1]
  hygroscopicity: hygroscopic

## CCCC(CCC)C(=O)O [divalproex sodium]
[1]
  hygroscopicity: not hygroscopic

## CCCC(CCC)C(=O)O [Valproic acid, 2-propylpentanoic acid]
[2]
  solubility in water: very slightly soluble in water

## magnesium valproate hydrate
[3]
  hygroscopicity / deliquescence: not hygroscopic or deliquescent
[4]
  stability during storage: stable during storage under ambient conditions
Epileptic patients; [6]
  number of patients with no convulsions or only occasional convulsions: increase significantly
  percentage of patients without convulsions: increase significantly
Epileptic patients; versus sodium valproate
  side effects (e.g., gastric discomfort or ulceration, malaise): fewer side effects

## 2-propylpentanoic acid magnesium salt [magnesium valproate]
deacetylase
  deacetylase activity and histone acetylation in tumor tissues: inhibits deacetylase activity and hyperacetylates histones
[5]
  absorption rate: slower and more regular absorption rate
